Literature values as cited in patent EP2505189B1, “Stabilizing alkylglycoside compositions and method thereof” (Aegis Therapeutics, LLC, priority 2006, dated 2007).
Blank lines part the entries; values can stand above or below the compound they belong to.

Columns and labels:
[1] = in water
[2] = Phase I, 1987-1990
[3] = tested on: HIV-related peripheral neuropathy; details: in vivo
isolated nasal cilia = details: in vitro, cilia from 15 human donors

CMC [1]: 0.01 mM
Compound: CCCCCCCCCCCCCCO[C@@H]1O[C@H](CO)[C@@H](O[C@@H]2O[C@@H](CO)[C@H](O)[C@@H](O)[C@@H]2O)[C@H](O)[C@H]1O (stereo in doubt) [Tetradecyl maltoside]

CMC [1]: 0.03 mM
Compound: CCCCCCCCCCCCCO[C@@H]1O[C@H](CO)[C@@H](OC2OC(CO)C(O)C(O)C2O)[C@H](O)[C@H]1O (stereo in doubt) [Tridecyl maltoside]

CMC [1]: 0.17 mM
Compound: CCCCCCCCCCCCO[C@@H]1O[C@H](CO)[C@@H](O[C@H]2O[C@H](CO)[C@@H](O)[C@H](O)[C@H]2O)[C@H](O)[C@H]1O [Dodecyl β -D-maltoside]

CMC [1]: 19.5 mM
Compound: CCCCCCCCO[C@@H]1O[C@H](CO)[C@@H](O[C@H]2O[C@H](CO)[C@@H](O)[C@H](O)[C@H]2O)[C@H](O)[C@H]1O [Octyl maltoside]

CMC [1]: 0.3 mM
Compound: Sucrose dodecanoate

Continued, compound first:

Compound: C[C@@H](N)C(=O)N[C@@H](CO)C(=O)N[C@H](C(=O)N[C@H](C(=O)N[C@H](C(=O)N[C@@H](CC(N)=O)C(=O)N[C@@H](Cc1ccc(O)cc1)C(=O)N[C@H](C(N)=O)[C@@H](C)O)[C@@H](C)O)[C@@H](C)O)[C@@H](C)O [DAPTA, D-ala^1-Peptide T-amide]
toxicity [2]: complete lack of toxicity | adverse drug effects [3]: No adverse drug effects were noted

Compound: CCCCCCCCCCO[C@@H]1O[C@H](CO)[C@@H](O[C@H]2O[C@H](CO)[C@@H](O)[C@H](O)[C@H]2O)[C@H](O)[C@H]1O [Decyl maltoside]
CMC [1]: 1.8 mM

Compound: benzalkonium chloride [BAC]
nasal irritation (nasal mucosa; 0.02% (Lange 2004)): no discernible negative effects whatsoever | effect on the nasal mucosal function (nasal mucosa; 0.02% twice a day, two weeks of continual regular use (McMahon 1997)): no detectable effect on the nasal mucosal function | saccharine transport time (nasal mucosa; in vivo tests (Riechelmann 2004)): did not alter saccharine transport time | damage to the nasal mucosa (nasal mucosa; prolonged use of topical formulations, 14 in vivo studies (Marple 2004)): no significant damage to the nasal mucosa | effect on isolated nasal cilia (isolated nasal cilia): ciliotoxic
